According to publication PMC3534213, “γ-Secretase Modulators: Can We Combine Potency with Safety?” (International Journal of Alzheimer's Disease, 2012):
One block for each compound: values may come before it.

Legend:
[1] = system: plasma Aβ42; set-up: method as in earlier work; conditions: human, 400 mg dose; cited from earlier work
[2] = set-up: method as in earlier work; conditions: high-dose group, rats; cited from earlier work
[3] = system: CSF Aβ42; set-up: method as in PMID 22072214; conditions: dog, single dose of 80 mg/kg; cited from earlier work
[4] = system: brain Aβ42; set-up: method as in PMID 22429469; conditions: 100 mg/kg oral dose; cited from earlier work
[5] = Free fraction in plasma (plasma protein binding); assay type: in vitro ADME
[6] = Free fraction in brain (brain tissue binding, Fub); assay type: in vitro ADME
[7] = set-up: method as in PMID 22072214; conditions: repeated dosing in rat and dog; cited from earlier work
[8] = system: plaque load; set-up: method as in PMID 21232036; conditions: chronic treatment of transgenic mice, exposure below concentrations required for Aβ42 reduction after a single dose; cited from earlier work
[9] = set-up: method as in PMID 22468891; conditions: Phase III clinical trials; cited from earlier work
[10] = biological target: T1, γ-secretase (Homo sapiens, UniProt P49768); test: Cellular Aβ42 lowering in SKNBE2 human neuroblastoma cells carrying hAPP 695 wild-type; assay type: cell-based; conditions: cellular assay, determined internally
T1 construct: screening was carried out using SKNBE2 human neuroblastoma cells carrying the hAPP 695 wild-type; endogenous in cells; host or cells: SKNBE2 human neuroblastoma cells carrying hAPP 695 wild-type

[11] = Dog model combining PK/PD data with early observations of liver toxicity; assay type: in vivo
Procedure: (§1) For the cellular in vitro activity of our own compounds, screening was carried out using SKNBE2 human neuroblastoma cells carrying the hAPP 695 wild-type as described in [15]. For a description of the mouse in vivo experiments, see references; for details on the dog in vivo experiments, see [17].
(§2) Both compounds have been tested in advanced animal models, including repeated dosing in rat and dog. […] Based on these findings, further development was halted. Since then, the dog model combining PK/PD data with early observations of liver toxicity is routinely used in our discovery program to triage compounds [17]. Both JNJ-40418677 and JNJ-42601572 contain a considerable number of conjugated aromatic rings and are characterized by high lipophilicity and molecular weight. In recent years a number of publications have appeared relating such properties with a low probability of success in clinical development. Catchy phrases like “molecular obesity” and “escape from flatland” have been used to describe the issues associated with high molecular weight and number of (hetero) aromatic rings in molecules. Based on analysis of compound properties and their attrition or success in (pre)clinical development, guidelines have been formulated and proposed which can be applied during optimization efforts in medicinal chemistry programs to strive towards more drug-like compounds. The concept of ligand efficiency (LE) is now routinely applied in the drug discovery process. It is defined as the binding energy towards a biological target per (heavy = nonhydrogen) atom in a compound. Since most assays are not directly measuring binding energy, IC50 values are often used to make a relative comparison of the LE of compounds. By working towards a high LE, molecular weight can be kept in control while optimizing pharmacological activity. […]

[12] = system: CSF Aβ42; test: as above; assay type: in vivo; conditions: 20 mg/kg p.o.
Procedure: as §1, §2

[13] = Limited tolerance study in rats; assay type: in vivo; conditions: two-week daily dose of 200 mg/kg
[14] = cited from earlier work

Structure (SMILES): COc1cc(/C=C2\CCCN([C@@H](C)c3ccc(F)cc3)C2=O)ccc1-n1cnc(C)c1 [Compound 3]
maximum reduction of plasma Aβ42 levels [1]: ~ 50%
lenticular opacity [2]: lenticular opacity was observed
gene-expression profile in liver tissue [3]: large changes in gene-expression profile
liver parameters [3]: liver parameter changes

Structure (SMILES): COc1nc(C(=O)N[C@H]2COc3ccc(Cl)c(F)c32)ccc1-n1cnc(C)c1 [Compound 15]
lowering of Aβ42 levels in Guinea pig brain [4]: 36%

fraction unbound [5]: < 0.001
fraction unbound [6]: < 0.001
Structure (SMILES): CC(C)C[C@H](C(=O)O)c1cc(-c2ccc(C(F)(F)F)cc2)cc(-c2ccc(C(F)(F)F)cc2)c1 [Compound 4]
liver toxicity signs (bilirubin and ALT/AST increases) [7]: early signs of liver toxicity were noted
effect on plaque load [8]: preventive effect on plaque load

Structure (SMILES): CC(C)[C@H](O)C(=O)N[C@@H](C)C(=O)N[C@@H]1C(=O)N(C)CCc2ccccc21 [Compound 1, semagacestat]
effect on cognition [9]: statistically significant decline in cognition
risk of skin cancer [9]: increased risk of skin cancer

Structure (SMILES): COc1nc(-c2nc3n(n2)CCO[C@H]3c2ccccc2OC(F)(F)F)ccc1-n1cnc(C)c1 [Compound 16]
IC50 [10]: 0.056 µM
concentration at 4 h ([11]; CSF, 20 mg/kg oral, 4 h, read-out: CSF compound concentration): 0.524 ± 0.062 µM
Cmax ([11]; plasma, po, 20 mg/kg): 24 ± 3 µM
bilirubin or ALT levels [12]: no increases in bilirubin or ALT levels were observed
fraction unbound [6]: 0.039
signs of liver toxicity [13]: did not lead to overt signs of liver toxicity

Structure (SMILES): C[C@@H](C(=O)O)c1ccc(-c2ccccc2)c(F)c1 [Compound 2, tarenflurbil]
tolerability in clinical trials ([14]; high dosage): well tolerated
phase III clinical trial outcome ([14]; phase III): negative results
